Measurements reported in PMC3793924, “Targeting Androgen Receptor/Src Complex Impairs the Aggressive Phenotype of Human Fibrosarcoma Cells” (PLoS ONE, 2013).

Experiments:
[1] = test system: HT1080 cell xenografts; assay: HT1080 cell xenografts in nude male mice, tumor mass; assay type: in vivo; conditions: i.p. on alternate days for 4 weeks, Casodex 0.1 μg/mice (4 µg/Kg), DHT 0,1 μg/mice (3 μg/Kg), six animals per group
Procedure: Figure 1 Casodex inhibits the EGF-triggered DNA synthesis in human fibrosarcoma HT1080 cells and reduces the growth of HT1080 xenografts. Human fibrosarcoma HT1080 cells were used. In A, quiescent cells on coverslips were left un-stimulated or stimulated for 18 h with the indicated compounds. […] After in vivo pulse with BrdU (100 μM; Sigma), BrdU incorporation was analyzed by IF and expressed as % of total nuclei. Several independent experiments were performed in duplicate and the results were derived from at least 400 scored cells for each coverslip. Mean and SEM are shown. n represents the number of experiments. (**) p value< 0,001. […] In B, xenografts were established in nude male mice as described in Methods. […] Volumes of HT1080 cell xenografts were measured at the indicated times in two dimensions by a caliper and expressed as tumor mass (mm^3). […]
HT1080 cells in 50% (v/v) Matrigel solution in phosphate-buffered saline (PBS; pH 7.4) were subcutaneously injected in the dorsal posterior region at 2.5 x 10^6 cells/male athymic mice (CD mice, Charles-River Italia) without hormone priming. […] The tumor volumes of HT1080 cell xenografts were measured at indicated intervals in two dimensions by a caliper and expressed as tumor mass (mm^3). This is calculated according to the formula: a^2 × b × 0.5, where a is the width and b is the length of the tumor. […]

[2] = Body weight of xenografted mice; assay type: in vivo; conditions: Casodex i.p. on alternate days, 4 weeks; weighed twice weekly
Text: HT1080 cells in 50% (v/v) Matrigel solution in phosphate-buffered saline (PBS; pH 7.4) were subcutaneously injected in the dorsal posterior region at 2.5 x 10^6 cells/male athymic mice (CD mice, Charles-River Italia) without hormone priming. Animals were randomly selected for the treatment with Casodex (dissolved in 0.1% ethanol) or DHT (dissolved in 0.1% ethanol) or control vehicle intra-peritoneally for a total of 4 weeks. Each group consisted of six animals. For the treatment of each animal (average weight: 25.08 g), 200 μl of 1 μM Casodex (about 0.1 µg) in 0.1% ethanol or 200 μl of 1 μM DHT (about 3 μg/Kg body weight) or the same amount of vehicle alone were administered to the mice on alternate days. The tumor volumes of HT1080 cell xenografts were measured at indicated intervals in two dimensions by a caliper and expressed as tumor mass (mm^3). This is calculated according to the formula: a^2 × b × 0.5, where a is the width and b is the length of the tumor. Food and water were given ad libitum. […] Animal experimentation was reviewed and approved by the Animal Research Ethical Committee of “Istituto per la Diagnosi e la Cura dei Tumori- Fondazione “G. Pascale” (Naples-ITALY).

[3] = test system: AR/Src complex; design: method as in PMID 17486077; conditions: androgen-challenged prostate cancer LNCaP cells; cited from earlier work
Text: (§1) Such a crosstalk has been previously analyzed in prostate cancer-derived LNCaP cells. […] The S1 peptide derives from the 377-386 amino-acid sequence of AR that is rich in prolines and is responsible for association of AR with t ...

[4] = test system: HT1080 cells; conditions: various cell types, including HT1080 cells (Figure S1); cited from earlier work
Text: as §1

Row | Compound | Growth of HT1080 xenografts (tumor mass) [1] | Body weight versus control mice [2] | Competition for AR association with the Src-SH3 domain [3] | Diffusion across membranes [4]
1 | CC(O)(CS(=O)(=O)c1ccc(F)cc1)C(=O)Nc1ccc(C#N)c(C(F)(F)F)c1 (stereo not shown) [Casodex] | tumor growth was drastically reduced | no difference in body weight |  | 
2 | Ac-PPPHPHARIK-NH2 [S1 peptide] |  |  | competes for this association | rapidly diffuses across membranes
